According to patent US20240423246A1, “RAPAMYCIN FOR INCREASED MILK PRODUCTION” (THE STATE OF ISRAEL, MINISTRY OF AGRICULTURE & RURAL …, priority 2023, published 2024):

Legend:
[1] = Mammary tissue morphology and pathology after intramammary rapamycin (H&E); format: in vivo, bovine (Holstein calves)
Experimental: (§1) Three-month-old female Holstein calves (˜90 kg body weight [BW]) that were raised on the Volcani Center's experimental farm were used in these experiments. During the experimental periods, each mammary gland was administered via the teat canal with 2 mL of vehicle, composed of sterile PBS containing 10% polyethylene glycol (Sigma, St. Louis, MO) and 10% Tween 80 (Sigma). In individual experiments, the vehicle was supplemented with Evans blue to analyze the penetration of this solution into the mammary epithelium, or with rapamycin to analyze its effect on cellular activities. The vehicle was administered using a sterile 22G IV cannula (Deltaven, Viadana, (MN) Italy), cut to ˜1.5 cm and inserted (without the needle) into the teat canal. […] In the relevant experiments, estrogen (0.1 mg/kg per day, Sigma) and progesterone (0.25 mg/kg per day, Sigma) were administered following the rapamycin treatment by daily subcutaneous injections for 4 consecutive days. The design of the studies was based on the distinct morphology and activity of the individual “quarters” (i.e., glands) of the bovine udder which can be individually affected. Thus, in studies analyzing the rapamycin effects, front or rear glands of each side of the calf served as internal controls for the other two rapamycin-administered glands. The dye Evans blue was added to one of the vehicle-treated glands to follow its penetration into the epithelial morphology in close and far regions from the teat (FIG. 1).
Bovine mammary samples were fixed in Bouin's solution, dehydrated in a graded ethanol series (50% to 100%), cleared in xylene and embedded in paraffin. Paraffin sections (5 μm) were stained with hematoxylin and eosin (H&E; Sigma) to visualize the morphology of the mammary layers.
(§2) To determine an effective concentration and administration interval, mammalian target of rapamycin (mTOR) responsiveness to rapamycin administration was studied in parenchymal regions that were close to and far from the teat. Rapamycin was delivered to the parenchymatic region of two calves at two concentrations (4.16 or 8.32 mg/gland per day). The calves were sacrificed 24 h or 48 h later and the udders were removed. […] Note that complete repression of mTOR activity was avoided in these experiments to preserve the self-renewing capability of the epithelial stem cells.
The effect of 3 weeks of skip-a-day rapamycin administration (8.32 mg/gland per day) on stem cell self-renewal (FIGS. 3A-3F) was examined.
To study the effect of rapamycin administration and induced stem cell self-renewal on mammary cell proliferation and milk protein expression, front and rear mammary glands of three calves (six for each treatment) were infused with either vehicle or rapamycin for 3 weeks (8.3 mg/gland per day). […]

mammary epithelial cells = test: Mammary cell proliferation by PCNA staining after rapamycin followed by estrogen and progesterone; format: in vivo, bovine (Holstein calves); conditions: 3 weeks 8.3 mg/gland per day, then estrogen and progesterone for 4 days
Experimental: FIGS. 6A-6C: (FIG. 6A) lower and (FIG. 6B) higher magnifications of PCNA-stained parenchymal cells and counterstained with hematoxylin. S, small ducts; L, large ducts. Bar=50 μm. (FIG. 6C) PCNA+ cells were analyzed in total (left plot), basal (middle plot) and luminal cell (right plot) populations of the small and large ducts. Six independent microscopic fields (X10 magnification) from each of the six glands treated with vehicle and six glands treated with rapamycin were analyzed. Overall, 127 ducts and 10,619 cells, and 122 ducts and 9999 cells were analyzed in the vehicle-treated and rapamycin-treated glands, respectively. ** P<0.01, *** P<0.001.
(§3) Three-month-old female Holstein calves (˜90 kg body weight [BW]) that were raised on the Volcani Center's experimental farm were used in these experiments. During the experimental periods, each mammary gland was administered via the teat canal with 2 mL of vehicle, composed of sterile PBS containing 10% polyethylene glycol (Sigma, St. Louis, MO) and 10% Tween 80 (Sigma). In individual experiments, the vehicle was supplemented with Evans blue to analyze the penetration of this solution into the mammary epithelium, or with rapamycin to analyze its effect on cellular activities. The vehicle was administered using a sterile 22G IV cannula (Deltaven, Viadana, (MN) Italy), cut to ˜1.5 cm and inserted (without the needle) into the teat canal. […]

[2] = tested on: bovine mammary epithelial stem cell population; test: Propagation rate of cultured cells from vehicle- and rapamycin-treated glands; format: cell-based
Experimental: For propagation rate, cells from each treatment were seeded in 96-well cell-culture plates (Corning, Corning, NY) at a density of 10,000 cells/well and cultured in mammary medium composed of DMEM-F12 medium containing 5% FBS, hydrocortisone ([…], Sigma), insulin ([…], Sigma), gentamicin ([…], Biological Industries), streptomycin and penicillin ([…] and 100 U/ml, respectively), hEGF (10 ng/ml, Merck, Darmstadt, Germany), hFGF2 (10 ng/ml, Merck), heparin (4 mg/ml, Merck), cholera toxin (10 ng/ml, Sigma) and B27 ([…], Invitrogen, Carlsbad, CA) (10) for the indicated period.
Rapamycin's effect on cell-propagation rate was analyzed in cultures from individual vehicle- and rapamycin-treated glands (FIG. 4A). This method produces a clear and significant distinction of the bovine mammary epithelial stem cell population from the more differentiated ones.

[3] = target: T1, mammalian target of rapamycin (mTOR) (Bos taurus, UniProt E1BFB4); test: S6 phosphorylation after 3 weeks of skip-a-day intramammary rapamycin administration (immunoblot); format: in vivo, bovine (Holstein calves)
Experimental: as §3, with “activities.” for “activities. The vehicle was administered using a sterile 22G IV cannula (Deltaven, Viadana, (MN) Italy), cut to ˜1.5 cm and inserted (without the needle) into the teat canal.”
Proteins from the parenchymal region of each mammary gland were extracted with RIPA buffer containing 10 mM Tris-HCl pH 7.5, 150 mM NaCl, 0.1% SDS, 1% sodium deoxycholate and 5 mM EDTA (Sigma), protease inhibitor cocktail and phosphatase inhibitor cocktail II (both from Sigma). Equal amounts of protein, determined by QPRO-BCA Kit Standard (Cyanagen, Bologna, Italy) according to the manufacturer's protocol, were subjected to SDS-PAGE. […] The expression levels of phosphorylated S6 (pS6) and β-actin were determined according to the signals generated with their respective antibodies. Signals were generated with WESTAR Supernova (Cyanagen, Bologna, Italy) combined with Super Signal chemiluminescent substrate (Thermo Fisher Scientific), and detected in a Syngene analyzer (Cambridge, UK).

[4] = tested on: Notch1, Jagged1, Delta1, LGR4, LGR5; test: Relative gene expression of stem cell markers in treated glands (real-time PCR); format: in vivo, bovine (Holstein calves); conditions: 3 weeks skip-a-day rapamycin; not significant at P<0.05
Experimental: FIG. 4A-4B: (FIG. 4A) Dispersed cells isolated from individual vehicle- and rapamycin-treated mammary glands were seeded in 96-well plates and cultured in mammary medium. At the indicated time points (arrows), cells were trypsinized, counted and reseeded. Inset: cell number at the end of the culture period. Bars represent mean±SEM. (FIG. 4B) Relative gene expression analysis of luminal progenitor marker (Stat5) and stem cell markers (Notch1, Jagged1, Delta1, LGR4, LGR5). N=4 for vehicle-treated and 3 for rapamycin-treated glands. Six wells of cells from each gland were analyzed.
RNA was extracted from the parenchymal region of each mammary gland using TRIzol reagent and reverse-transcribed with the qScript Synthesis Kit (Quanta BioSciences, Beverly, MA). RNA quality and quantity were determined in a NanoDrop 1000 spectrophotometer (Thermo Fisher Scientific, Wilmington, DE). Quantitative real-time PCR analyses were performed in a StepOnePlus instrument (Applied Biosystems, Foster City, CA) in a […] reaction volume containing 1 μL cDNA, 5 μL PerfeCta SYBR Green FastMix, Rox (2X) (Quanta BioSciences) and 0.5 μL of the primers listed in Table 1. The thermal cycling conditions consisted of 20 s at 95° C. followed by 40 cycles of 3 s at 95° C. and 30 s at 60° C. […] Fold change (relative expression) was calculated using StepOne v2.1 and DataAssist v2.0 software (Applied Biosystems). […]

[5] = target: T1, mammalian target of rapamycin (mTOR); test: S6 phosphorylation in mammary parenchyma after single intramammary rapamycin administration (immunoblot, immunohistochemistry); format: in vivo, bovine (Holstein calves)
Experimental: as §1
Immunohistochemistry was performed on the 5-μm paraffin-embedded sections after antigen retrieval. The reaction with primary antibodies against β-casein (Barash lab), pS6 (Cell signaling Inc.), CK18 (GeneTex), and PCNA (BioLegend), was initiated by blocking the sections with 10% bovine serum albumen and 5% goat serum in 0.1% PBST for 1 h prior to overnight incubation with the first antibody at 4° C. Sections were washed and incubated with N-Histofine (Nichirei Biosciences, Tokyo, Japan) for 30 min at room temperature. Signals were generated with 3,3-diaminobenzidine (DAB) substrate (Vector Laboratories, Burlingame, CA).
Proteins from the parenchymal region of each mammary gland were extracted with RIPA buffer containing 10 mM Tris-HCl pH 7.5, 150 mM NaCl, 0.1% SDS, 1% sodium deoxycholate and 5 mM EDTA (Sigma), protease inhibitor cocktail and phosphatase inhibitor cocktail II (both from Sigma). Equal amounts of protein, determined by QPRO-BCA Kit Standard (Cyanagen, Bologna, Italy) according to the manufacturer's protocol, were subjected to SDS-PAGE. Fractionated proteins were transferred to nitrocellulose filters and the uploading of equal amounts of protein per sample was confirmed by staining the blot with Ponceau S (Sigma). The expression levels of phosphorylated S6 (pS6) and β-actin were determined according to the signals generated with their respective antibodies. Signals were generated with WESTAR Supernova (Cyanagen, Bologna, Italy) combined with Super Signal chemiluminescent substrate (Thermo Fisher Scientific), and detected in a Syngene analyzer (Cambridge, UK).
as §2

bovine mammary cell = conditions: xanthosine administration; cited from earlier work
[6] = 24 h after infusion, close to nipple, rapamycin 4.16 mg
[7] = 24 h after infusion, close to nipple, rapamycin 8.32 mg
[8] = 48 h after infusion, close to nipple, rapamycin 4.16 mg
[9] = 48 h after infusion, close to nipple, rapamycin 8.32 mg
[10] = 48 h after infusion, far from nipple, rapamycin 4.16 mg
[11] = 48 h after infusion, far from nipple, rapamycin 8.32 mg

CO[C@H]1C[C@@H]2CC[C@@H](C)[C@@](O)(O2)C(=O)C(=O)N2CCCC[C@H]2C(=O)O[C@H]([C@H](C)C[C@@H]2CC[C@@H](O)[C@H](OC)C2)CC(=O)[C@H](C)/C=C(\C)[C@@H](O)[C@@H](OC)C(=O)[C@H](C)C[C@H](C)/C=C/C=C/C=C/1C [Rapamycin]
differences in morphology between vehicle- and rapamycin-treated glands ([1]; 3 weeks 8.3 mg/gland per day, then estrogen and progesterone for 4 days): no apparent differences | effect on mammary gland morphology ([1]; 3 weeks skip-a-day, 8.32 mg/gland per day): not associated with any detectable effect | effect on tissue morphology in the parenchymatic regions ([1]; 4.16 or 8.32 mg/gland, 24 h or 48 h after administration): did not seem to have any effect | pathological consequences of the amount and methodology chosen ([1]; intramammary administration): did not have pathological consequences | increase in total number of PCNA+ cells (mammary epithelial cells): 20% | propagation rate difference, cultures from rapamycin-treated vs vehicle-treated gland ([2]; day 37 of culture): 1.15 fold | propagation rate difference, cultures from rapamycin-treated vs vehicle-treated gland ([2]; day 52 of culture): 1.4 fold | propagation rate difference, cultures from rapamycin-treated vs vehicle-treated gland ([2]; end of the culture period): 2.6 fold | decrease in S6 phosphorylation ([3]; 3 weeks skip-a-day, 8.32 mg/gland per day, immunoblot 48 h after termination): 53% | decrease in mTOR activity ([3]; skip-a-day, 3-week intramammary administration): ~50% | stem cell marker gene expression, more than in vehicle-treated counterparts [4]: 8-20% | pS6/S6 relative to vehicle (100%) [5, 6]: (66%) | pS6/β-actin relative to vehicle (100%) [5, 6]: (75%) | pS6/S6 relative to vehicle (100%) [5, 7]: (95%) | pS6/β-actin relative to vehicle (100%) [5, 7]: (63%) | pS6/S6 relative to vehicle (100%) [5, 8]: (71%) | pS6/β-actin relative to vehicle (100%) [5, 8]: (64%) | pS6/S6 relative to vehicle (100%) [5, 9]: (76%) | pS6/β-actin relative to vehicle (100%) [5, 9]: (81%) | pS6/S6 relative to vehicle (100%) [5, 10]: (93%) | pS6/β-actin relative to vehicle (100%) [5, 10]: (68%) | pS6/S6 relative to vehicle (100%) [5, 11]: (48%) | pS6/β-actin relative to vehicle (100%) [5, 11]: (56%)

O=c1[nH]c(=O)c2ncn([C@@H]3O[C@H](CO)[C@@H](O)[C@H]3O)c2[nH]1 [xanthosine]
suppression of bovine mammary cell proliferation (bovine mammary cell): 50%
